Assay results taken from publication PMC6925736, “Development of a HPLC-MS/MS Method to Determine the 13 Elements of Semen Cuscutae and Application to a Pharmacokinetic Study in Rats” (Evidence-based Complementary and Alternative Medicine : eCAM, 2019).

How the values were obtained:
[1] = Stability of analytes in rat plasma QC samples under processing and storage conditions; assay type: in vitro ADME; conditions: n = 6; for Measured concentration, room temperature for 4h / Measured concentration, three freeze-thaw / Measured concentration, −70°C for 21 days: rat plasma; for Measured concentration, autosampler for 12h: treated rat plasma sample
Experimental: The stability of the 13 analytes was evaluated by QC samples in different processing and storage conditions, including short-term stability (putting the analytes in ambient temperature for 4 h and storing analytes in autosampler for 12 h after treatment), long-term stability (storing the analytes at −70°C for 21 days) and subjecting analytes to three freeze-thaw cycles. All stability experiments were tested in six parallels with low, middle, and high concentrations.

[2] = Pharmacokinetic study in rats after oral administration of Semen Cuscutae extract (HPLC-MS/MS of plasma); assay type: in vivo, Sprague–Dawley rats; conditions: oral Semen Cuscutae extract 13 g/kg; for plasma concentration after 15 minutes of intragastric administration / AUC(0-inf) / Cmax / AUC / T max / t 1/2: rat plasma; for plasma concentration after 15 minutes of intragastric administration: LLOQ 1 ng/mL; for AUC: read-out: AUC(0-tn)
Experimental: 20 μL of methanol, 20 μL of IS (liquiritin, 200 ng/mL) and 20 μL of formic acid were added to 100 μL of plasma sample and then vortex-mixed. The mixture was extracted with 800 μL of acetonitrile by vortexing for 3 min. After centrifugation at 14000 rpm for 10 min, the supernatant was transferred to a clean glass tube and dried with nitrogen. The residue was reconstituted in 100 μL of methanol and then centrifuged at 14000 rpm for 10 min. 5 μL of supernatant was injected into the LC–MS/MS system for analysis.
Six Sprague–Dawley rats (SPF, 200 ± 10 g, male) were purchased from HFK Laboratory Animal Technology Co., Ltd. The rats were housed in a standard laboratory condition (12 h dark-light cycle; temperature was 25°C ± 2°C and humidity was kept 50 ± 5%) and fed standard dry pellet diet and water for one week for acclimatization. Before the experiments, the rats were in fasting state for 12 h, with free access to water. The Semen Cuscutae extracts were dissolved in 0.5% carboxymethyl cellulose-sodium, prepared into suspension and gavage to the rats at a dose of 13 g/kg. Approximately 200 μL of rat blood samples was collected from the orbital venous plexus at 0, 0.03, 0.08, 0.17, 0.25, 0.5, 1, 2, 4, 6, 8, 10, 12, 24, 36, and 48 h after oral administration into 1.5 mL heparinized centrifuge tube. After centrifugation at 7000 rpm for 10 min immediately, the supernatant was collected into a new centrifuge tube and stored at −70°C until analysis.
Pharmacokinetic parameters (Cmax, t1/2, Tmax, AUC(0-tn), and AUC(0-∞)) were obtained using the software “Drug and Statistics 3.0” (DAS 3.0) (Medical College of Wannan, China).

[3] = male, Sprague-Dawley, rat, plasma, po, 13 g/kg, n = 6

SMILES	Measured concentration, room temperature for 4h ([1]; spiked 2 ng/mL) [ng/mL]	Measured concentration, three freeze-thaw ([1]; spiked 2 ng/mL) [ng/mL]	Measured concentration, −70°C for 21 days ([1]; spiked 2 ng/mL) [ng/mL]	Measured concentration, room temperature for 4h ([1]; spiked 25 ng/mL) [ng/mL]	Measured concentration, three freeze-thaw ([1]; spiked 25 ng/mL) [ng/mL]	Measured concentration, −70°C for 21 days ([1]; spiked 25 ng/mL) [ng/mL]	Measured concentration, room temperature for 4h ([1]; spiked 250 ng/mL) [ng/mL]	Measured concentration, three freeze-thaw ([1]; spiked 250 ng/mL) [ng/mL]	Measured concentration, −70°C for 21 days ([1]; spiked 250 ng/mL) [ng/mL]	Measured concentration, autosampler for 12h ([1]; spiked 2 ng/mL) [ng/mL]	Measured concentration, autosampler for 12h ([1]; spiked 25 ng/mL) [ng/mL]	Measured concentration, autosampler for 12h ([1]; spiked 250 ng/mL) [ng/mL]	plasma concentration after 15 minutes of intragastric administration [2]	AUC(0-inf) ([2]; male, Sprague-Dawley, n = 6) [ng·h/mL]	Cmax ([2]; male, Sprague-Dawley, n = 6) [ng/mL]	AUC ([2]; male, Sprague-Dawley, n = 6) [ng·h/mL]	T max ([2]; n = 6) [min]	t 1/2 ([2]; n = 6) [min]	half-life [2, 3] [min]	also measured
O=c1c(O[C@@H]2O[C@H](CO)[C@@H](O)[C@H](O)[C@H]2O)c(-c2ccc(O)cc2)oc2cc(O)cc(O)c12 [Astragalin]	2.1 ± 0.1	2.1 ± 0.1	2.0 ± 0.1	27.6 ± 1.2	27.2 ± 0.8	26.1 ± 1.2	248.1 ± 4.3	258.6 ± 8.5	251.5 ± 8.7	2.1 ± 0.1	27.3 ± 1.0	254.6 ± 4.6	–	441 ± 292	58.2 ± 28.5	370 ± 259	14.4 ± 5.4	27 ± 15.6	–	T max ([2]; n = 6, listed as astragalin): less than 1 h; t 1/2 ([2]; n = 6, listed as astragalin): less than 1.5 h
O=C(/C=C/c1ccc(O)c(O)c1)O[C@@H]1C[C@](O)(C(=O)O)C[C@@H](O)[C@H]1O [Chlorogenic acid]	2.1 ± 0.1	2.1 ± 0.1	2.1 ± 0.1	27.7 ± 1.6	28.1 ± 1.0	26.6 ± 1.2	258.4 ± 15.7	268.6 ± 15.8	253.6 ± 7.7	2.1 ± 0.1	26.6 ± 1.6	253.1 ± 6.0	–	1000 ± 646	35.5 ± 7.3	995 ± 654	13.2 ± 3.6	61.2 ± 40.2	< 90	T max ([2]; n = 6, listed as chlorogenic acid): less than 1 h
O=C(/C=C/c1ccc(O)c(O)c1)O[C@H]1[C@H](O)C[C@](O)(C(=O)O)C[C@H]1O [Cryptochlorogenic acid]	2.0 ± 0.1	2.0 ± 0.1	2.0 ± 0.1	27.0 ± 1.8	26.2 ± 0.3	25.5 ± 1.2	260.4 ± 3.3	248.9 ± 6.5	244.4 ± 7.4	2.1 ± 0.1	27.3 ± 0.6	251.2 ± 9.7	lower than the LLOQ	–	–	–	–	–	–	–
O=c1c(O[C@@H]2O[C@H](CO)[C@H](O)[C@H](O)[C@H]2O)c(-c2ccc(O)c(O)c2)oc2cc(O)cc(O)c12 [Hyperoside]	2.0 ± 0.1	2.1 ± 0.1	1.9 ± 0.1	23.0 ± 1.2	26.2 ± 1.5	26.4 ± 1.8	244.4 ± 14.3	254.7 ± 9.7	256.4 ± 15.8	1.8 ± 0.1	23.6 ± 0.7	230.2 ± 13.1	–	754 ± 424	29.8 ± 12.8	684 ± 407	10.2 ± 4.2	21.6 ± 13.8	–	T max ([2]; n = 6, listed as hyperoside): less than 1 h; t 1/2 ([2]; n = 6, listed as hyperoside): less than 1.5 h
O=c1c(O)c(-c2ccc(O)cc2)oc2cc(O)cc(O)c12 [Kaempferol]	2.2 ± 0.2	2.0 ± 0.2	2.0 ± 0.1	24.8 ± 0.3	26.2 ± 1.6	25.7 ± 0.8	247.5 ± 6.3	252.6 ± 7.5	257.2 ± 6.4	2.1 ± 0.2	25.4 ± 2.5	254.0 ± 4.9	lower than the LLOQ	–	–	–	–	–	–	–
O=c1cc(-c2ccc(O)c(O)c2)oc2cc(O)cc(O)c12 [Luteolin]	2.2 ± 0.1	2.0 ± 0.1	2.0 ± 0.1	26.5 ± 0.5	26.8 ± 1.6	27.4 ± 0.9	256.7 ± 11.5	261.1 ± 8.2	257.6 ± 5.1	2.1 ± 0.1	25.6 ± 1.0	244.9 ± 6.3	lower than the LLOQ	–	–	–	–	–	–	–

More lines, main results first:

Measured concentration, room temperature for 4h ([1]; spiked 2 ng/mL) [ng/mL]	Measured concentration, three freeze-thaw ([1]; spiked 2 ng/mL) [ng/mL]	Measured concentration, −70°C for 21 days ([1]; spiked 2 ng/mL) [ng/mL]	Measured concentration, room temperature for 4h ([1]; spiked 25 ng/mL) [ng/mL]	Measured concentration, three freeze-thaw ([1]; spiked 25 ng/mL) [ng/mL]	Measured concentration, −70°C for 21 days ([1]; spiked 25 ng/mL) [ng/mL]	Measured concentration, room temperature for 4h ([1]; spiked 250 ng/mL) [ng/mL]	Measured concentration, three freeze-thaw ([1]; spiked 250 ng/mL) [ng/mL]	Measured concentration, −70°C for 21 days ([1]; spiked 250 ng/mL) [ng/mL]	Measured concentration, autosampler for 12h ([1]; spiked 2 ng/mL) [ng/mL]	Measured concentration, autosampler for 12h ([1]; spiked 25 ng/mL) [ng/mL]	Measured concentration, autosampler for 12h ([1]; spiked 250 ng/mL) [ng/mL]	plasma concentration after 15 minutes of intragastric administration [2]	AUC(0-inf) ([2]; male, Sprague-Dawley, n = 6) [ng·h/mL]	Cmax ([2]; male, Sprague-Dawley, n = 6) [ng/mL]	AUC ([2]; male, Sprague-Dawley, n = 6) [ng·h/mL]	T max ([2]; n = 6) [min]	t 1/2 ([2]; n = 6) [min]	half-life [2, 3] [min]	SMILES	also measured
2.2 ± 0.1	2.0 ± 0.1	2.1 ± 0.1	26.4 ± 1.2	25.7 ± 2.0	26.5 ± 1.3	249.3 ± 12.8	262.2 ± 16.0	257.8 ± 8.2	2.1 ± 0.2	25.0 ± 1.2	248.5 ± 4.9	lower than the LLOQ	–	–	–	–	–	–	O=c1cc(-c2ccc(O)cc2)oc2cc(O)cc(O)c12 [Apigenin]	–
2.1 ± 0.1	2.1 ± 0.1	2.0 ± 0.1	27.9 ± 1.0	27.0 ± 1.3	26.0 ± 0.6	272.5 ± 8.9	255.7 ± 3.9	250.2 ± 5.1	2.2 ± 0.1	28.1 ± 0.8	262.6 ± 7.4	–	652 ± 292	33.7 ± 8.43	613 ± 291	–	696 ± 55.2	> 450	O=C(O)/C=C/c1ccc(O)c(O)c1 [Caffeic acid]	Tmax [2, 3]: 16.8 ± 2.4 min
2.0 ± 0.1	2.0 ± 0.1	2.1 ± 0.1	27.1 ± 1.3	27.1 ± 1.5	26.2 ± 0.6	259.9 ± 5.5	255.0 ± 5.7	249.5 ± 7.0	2.1 ± 0.1	26.9 ± 1.0	251.5 ± 5.4	–	257 ± 74.4	19.5 ± 9.8	172 ± 49.2	18 ± 0.6	73.8 ± 15.6	< 90	COc1cc(-c2oc3cc(O)cc(O)c3c(=O)c2O[C@@H]2O[C@H](CO)[C@@H](O)[C@H](O)[C@H]2O)ccc1O [Isorhamnetin-3-O-glucoside]	T max ([2]; n = 6, listed as isorhamnetin-3-O-glucoside): less than 1 h
